Test results: the kinase profiling compilation of Christmann-Franck et al. (2016)

Legend:
Test in all cases: KINOMEscan competition binding
Conditions in all cases: compound 10.0 µM
[1] = biological target: RPS6KA6 KD2 (human) (UniProt Q9UK32)
[2] = biological target: PRKAA2 (human) (UniProt P54646)
[3] = biological target: BMPR1A (human) (UniProt P36894)
[4] = biological target: PRKCE (human) (UniProt Q02156)
[5] = biological target: RPS6KA5 KD2 (human) (UniProt O75582)
[6] = biological target: NEK2 (human) (UniProt P51955)
[7] = biological target: PLK1 (human) (UniProt P53350)
[8] = biological target: ABL2 (human) (UniProt P42684)
[9] = biological target: PLK4 (human) (UniProt O00444)
[10] = biological target: JAK2 JH1 catalytic (human) (UniProt O60674)
[11] = biological target: EPHA4 (human) (UniProt P54764)
[12] = biological target: FGFR3 (human) (UniProt P22607)
Chain of FGFR3 (human) (P22607 whole entry, looked up): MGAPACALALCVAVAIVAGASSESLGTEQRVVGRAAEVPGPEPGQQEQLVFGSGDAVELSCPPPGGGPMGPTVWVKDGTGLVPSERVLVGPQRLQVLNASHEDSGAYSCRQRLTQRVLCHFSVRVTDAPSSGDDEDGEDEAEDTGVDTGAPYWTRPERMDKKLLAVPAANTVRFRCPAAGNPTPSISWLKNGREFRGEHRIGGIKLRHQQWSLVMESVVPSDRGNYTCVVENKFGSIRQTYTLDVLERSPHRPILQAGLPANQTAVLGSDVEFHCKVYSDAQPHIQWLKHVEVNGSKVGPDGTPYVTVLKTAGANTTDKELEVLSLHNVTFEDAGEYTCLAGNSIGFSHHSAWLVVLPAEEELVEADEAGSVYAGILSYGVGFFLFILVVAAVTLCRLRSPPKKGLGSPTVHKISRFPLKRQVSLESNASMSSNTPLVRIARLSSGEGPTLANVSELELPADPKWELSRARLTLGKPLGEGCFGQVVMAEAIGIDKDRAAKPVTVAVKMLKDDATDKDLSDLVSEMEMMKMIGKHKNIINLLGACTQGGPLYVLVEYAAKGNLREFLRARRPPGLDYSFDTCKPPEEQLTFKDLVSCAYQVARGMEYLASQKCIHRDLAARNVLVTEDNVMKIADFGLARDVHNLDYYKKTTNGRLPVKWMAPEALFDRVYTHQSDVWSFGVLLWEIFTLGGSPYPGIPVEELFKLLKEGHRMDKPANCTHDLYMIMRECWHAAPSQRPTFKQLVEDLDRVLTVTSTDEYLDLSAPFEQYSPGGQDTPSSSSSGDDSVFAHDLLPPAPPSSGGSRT

[13] = biological target: MAP3K10 (human) (UniProt Q02779)
[14] = biological target: PIM2 (human) (UniProt Q9P1W9)
[15] = biological target: MAP3K3 (human) (UniProt Q99759)
[16] = biological target: STK17B (human) (UniProt O94768)
[17] = biological target: FRK (human) (UniProt P42685)
[18] = biological target: RIOK2 (human) (UniProt Q9BVS4)
[19] = biological target: MST1R (human) (UniProt Q04912)
[20] = biological target: TGFBR1 (human) (UniProt P36897)
[21] = biological target: TYK2 JH2 pseudokinase (human) (UniProt P29597)
Chain of TYK2 JH2 pseudokinase (human) (P29597 whole entry, looked up): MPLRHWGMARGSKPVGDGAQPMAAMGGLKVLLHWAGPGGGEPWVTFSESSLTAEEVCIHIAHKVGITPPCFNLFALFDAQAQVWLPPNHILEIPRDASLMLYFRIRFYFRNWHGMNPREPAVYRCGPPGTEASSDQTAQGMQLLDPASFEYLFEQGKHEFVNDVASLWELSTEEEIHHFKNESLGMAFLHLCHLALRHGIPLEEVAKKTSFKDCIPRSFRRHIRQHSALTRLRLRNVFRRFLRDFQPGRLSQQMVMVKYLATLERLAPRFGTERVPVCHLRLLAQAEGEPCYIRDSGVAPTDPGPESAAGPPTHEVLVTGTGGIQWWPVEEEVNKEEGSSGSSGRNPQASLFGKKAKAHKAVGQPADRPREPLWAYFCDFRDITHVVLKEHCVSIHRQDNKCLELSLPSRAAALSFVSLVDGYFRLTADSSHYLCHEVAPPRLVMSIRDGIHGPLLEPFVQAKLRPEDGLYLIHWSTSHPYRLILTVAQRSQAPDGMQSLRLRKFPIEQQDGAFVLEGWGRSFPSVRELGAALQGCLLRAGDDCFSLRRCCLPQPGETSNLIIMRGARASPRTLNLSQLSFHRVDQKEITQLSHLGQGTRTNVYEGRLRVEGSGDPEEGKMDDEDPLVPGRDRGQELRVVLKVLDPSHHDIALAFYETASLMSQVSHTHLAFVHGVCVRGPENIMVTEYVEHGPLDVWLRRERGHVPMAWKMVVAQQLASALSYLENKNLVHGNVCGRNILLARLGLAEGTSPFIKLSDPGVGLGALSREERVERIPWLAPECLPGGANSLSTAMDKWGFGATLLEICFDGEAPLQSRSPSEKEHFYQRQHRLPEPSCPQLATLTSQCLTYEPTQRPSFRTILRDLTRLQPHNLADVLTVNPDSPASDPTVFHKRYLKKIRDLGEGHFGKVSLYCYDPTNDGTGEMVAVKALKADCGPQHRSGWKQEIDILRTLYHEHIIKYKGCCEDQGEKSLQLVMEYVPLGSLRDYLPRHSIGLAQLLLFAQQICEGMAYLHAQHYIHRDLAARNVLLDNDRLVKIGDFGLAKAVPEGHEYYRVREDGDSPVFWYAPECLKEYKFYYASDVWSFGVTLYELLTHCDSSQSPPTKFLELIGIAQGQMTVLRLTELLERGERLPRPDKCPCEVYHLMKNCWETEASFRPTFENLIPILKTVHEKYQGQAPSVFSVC

[22] = biological target: AKT3 (human) (UniProt Q9Y243)
[23] = biological target: FLT1 (human) (UniProt P17948)
Chain of FLT1 (human) (P17948 whole entry, looked up): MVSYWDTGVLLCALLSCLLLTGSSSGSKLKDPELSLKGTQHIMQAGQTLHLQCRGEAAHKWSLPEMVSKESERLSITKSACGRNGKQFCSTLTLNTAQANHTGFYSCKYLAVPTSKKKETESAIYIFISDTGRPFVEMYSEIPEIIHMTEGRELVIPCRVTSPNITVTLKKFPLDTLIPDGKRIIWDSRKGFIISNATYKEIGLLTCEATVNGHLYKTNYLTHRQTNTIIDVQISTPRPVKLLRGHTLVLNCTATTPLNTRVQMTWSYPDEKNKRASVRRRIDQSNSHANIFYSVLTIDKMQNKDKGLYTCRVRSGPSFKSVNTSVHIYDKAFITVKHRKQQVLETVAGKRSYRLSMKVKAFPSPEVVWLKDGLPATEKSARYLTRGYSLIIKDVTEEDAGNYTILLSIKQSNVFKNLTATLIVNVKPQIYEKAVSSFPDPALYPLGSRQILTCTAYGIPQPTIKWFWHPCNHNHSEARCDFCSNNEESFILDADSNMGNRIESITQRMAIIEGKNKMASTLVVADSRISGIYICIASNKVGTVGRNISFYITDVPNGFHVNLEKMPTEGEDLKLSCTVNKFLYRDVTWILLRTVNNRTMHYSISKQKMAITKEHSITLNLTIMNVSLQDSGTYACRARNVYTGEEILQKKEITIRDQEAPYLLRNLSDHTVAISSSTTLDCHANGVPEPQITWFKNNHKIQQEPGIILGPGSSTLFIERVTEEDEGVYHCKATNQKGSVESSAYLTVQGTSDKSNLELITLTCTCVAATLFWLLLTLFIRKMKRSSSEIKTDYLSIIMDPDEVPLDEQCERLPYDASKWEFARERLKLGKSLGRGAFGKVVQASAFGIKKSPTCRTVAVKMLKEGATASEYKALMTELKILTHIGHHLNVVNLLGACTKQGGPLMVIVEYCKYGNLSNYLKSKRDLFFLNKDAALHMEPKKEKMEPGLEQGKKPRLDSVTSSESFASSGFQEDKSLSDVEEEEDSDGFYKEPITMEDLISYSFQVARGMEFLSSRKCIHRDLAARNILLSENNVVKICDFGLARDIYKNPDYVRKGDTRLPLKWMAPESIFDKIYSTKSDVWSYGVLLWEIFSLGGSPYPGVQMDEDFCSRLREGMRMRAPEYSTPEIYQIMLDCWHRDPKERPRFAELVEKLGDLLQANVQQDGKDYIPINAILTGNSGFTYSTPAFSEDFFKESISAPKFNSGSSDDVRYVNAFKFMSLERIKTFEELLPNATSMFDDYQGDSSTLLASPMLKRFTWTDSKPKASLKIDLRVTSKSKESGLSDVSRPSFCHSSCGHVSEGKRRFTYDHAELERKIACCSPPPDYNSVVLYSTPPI

[24] = biological target: MST4 (human) (UniProt Q9P289)
[25] = biological target: ACVRL1 (human) (UniProt P37023)
[26] = biological target: FGFR1 (human) (UniProt P11362)
[27] = biological target: PKMYT1 (human) (UniProt Q99640)
Chain of PKMYT1 (human) (Q99640 whole entry, looked up): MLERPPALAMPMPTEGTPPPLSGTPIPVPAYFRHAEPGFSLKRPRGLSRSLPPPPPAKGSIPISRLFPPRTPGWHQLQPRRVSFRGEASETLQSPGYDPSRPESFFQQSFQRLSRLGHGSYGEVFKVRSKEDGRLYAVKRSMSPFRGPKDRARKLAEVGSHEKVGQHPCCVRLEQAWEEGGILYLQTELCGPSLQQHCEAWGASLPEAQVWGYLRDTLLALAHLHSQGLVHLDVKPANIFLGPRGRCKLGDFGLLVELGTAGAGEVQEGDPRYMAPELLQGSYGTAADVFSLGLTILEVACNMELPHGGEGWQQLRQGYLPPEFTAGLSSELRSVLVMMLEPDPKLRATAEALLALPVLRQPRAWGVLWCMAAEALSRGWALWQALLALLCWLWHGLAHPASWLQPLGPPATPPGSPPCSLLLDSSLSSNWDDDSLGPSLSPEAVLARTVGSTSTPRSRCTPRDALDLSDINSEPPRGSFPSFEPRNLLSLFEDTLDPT

[28] = biological target: DYRK1B (human) (UniProt Q9Y463)
[29] = biological target: FGFR2 (human) (UniProt P21802)
[30] = biological target: MAPK10 (human) (UniProt P53779)
[31] = biological target: AKT1 (human) (UniProt P31749)
[32] = biological target: CHEK2 (human) (UniProt O96017)
[33] = biological target: CLK4 (human) (UniProt Q9HAZ1)
[34] = biological target: CDK7 (human) (UniProt P50613)
Chain of CDK7 (human) (P50613 whole entry, looked up): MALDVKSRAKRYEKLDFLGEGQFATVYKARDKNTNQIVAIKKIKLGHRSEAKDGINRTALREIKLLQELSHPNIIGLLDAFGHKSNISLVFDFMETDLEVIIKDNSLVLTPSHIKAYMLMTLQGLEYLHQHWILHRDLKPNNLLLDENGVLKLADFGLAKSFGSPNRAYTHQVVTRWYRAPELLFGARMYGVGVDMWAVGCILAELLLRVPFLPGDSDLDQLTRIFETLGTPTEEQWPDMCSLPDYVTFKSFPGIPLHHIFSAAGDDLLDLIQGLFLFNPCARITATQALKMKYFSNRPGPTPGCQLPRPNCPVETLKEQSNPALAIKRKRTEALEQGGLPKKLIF

[35] = biological target: MAP4K2 (human) (UniProt Q12851)
[36] = biological target: CAMK2B (human) (UniProt Q13554)
[37] = biological target: FLT4 (human) (UniProt P35916)
[38] = biological target: TGFBR2 (human) (UniProt P37173)
[39] = biological target: PIP4K2B (human) (UniProt P78356)
[40] = biological target: MAP4K3 (human) (UniProt Q8IVH8)

Chain of RPS6KA6 KD2 (human) (Q9UK32 whole entry, looked up): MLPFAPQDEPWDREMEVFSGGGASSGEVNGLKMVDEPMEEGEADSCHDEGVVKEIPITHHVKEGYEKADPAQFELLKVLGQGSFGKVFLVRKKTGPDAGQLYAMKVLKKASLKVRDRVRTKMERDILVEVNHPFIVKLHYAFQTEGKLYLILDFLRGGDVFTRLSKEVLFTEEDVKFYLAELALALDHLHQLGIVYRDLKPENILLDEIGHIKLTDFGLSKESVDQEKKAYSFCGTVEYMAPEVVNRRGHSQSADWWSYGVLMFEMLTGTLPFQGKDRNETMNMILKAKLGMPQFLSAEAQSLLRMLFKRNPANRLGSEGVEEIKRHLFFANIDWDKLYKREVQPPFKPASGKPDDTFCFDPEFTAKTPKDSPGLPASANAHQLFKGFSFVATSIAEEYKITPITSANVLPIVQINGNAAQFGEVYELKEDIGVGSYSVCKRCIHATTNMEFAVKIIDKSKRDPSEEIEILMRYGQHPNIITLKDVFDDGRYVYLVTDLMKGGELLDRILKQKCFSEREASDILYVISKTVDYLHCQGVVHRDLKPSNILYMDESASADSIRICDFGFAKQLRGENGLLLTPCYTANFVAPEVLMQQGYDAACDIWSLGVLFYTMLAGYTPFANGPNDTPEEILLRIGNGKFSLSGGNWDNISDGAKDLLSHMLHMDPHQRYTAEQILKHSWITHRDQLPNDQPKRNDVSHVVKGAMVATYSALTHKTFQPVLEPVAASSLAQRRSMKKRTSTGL

kinase still bound, per cent of control [1] [%] | kinase still bound, per cent of control [2] [%] | kinase still bound, per cent of control [3] [%] | kinase still bound, per cent of control [4] [%] | kinase still bound, per cent of control [5] [%] | kinase still bound, per cent of control [6] [%] | kinase still bound, per cent of control [7] [%] | kinase still bound, per cent of control [8] [%] | kinase still bound, per cent of control [9] [%] | kinase still bound, per cent of control [10] [%] | kinase still bound, per cent of control [11] [%] | kinase still bound, per cent of control [12] [%] | kinase still bound, per cent of control [13] [%] | kinase still bound, per cent of control [14] [%] | kinase still bound, per cent of control [15] [%] | kinase still bound, per cent of control [16] [%] | kinase still bound, per cent of control [17] [%] | kinase still bound, per cent of control [18] [%] | kinase still bound, per cent of control [19] [%] | kinase still bound, per cent of control [20] [%] | SMILES | further results
100 | 100 | 100 | 100 | 100 | 100 | 100 | 21 | 100 | 100 | 6.8 | 100 | 100 | 100 | 100 | 100 | 1.3 | 100 | 100 | 100 | Cc1ccc(C(=O)Nc2cccc(C(F)(F)F)c2)cc1Nc1cncc(C(N)=O)c1 | kinase still bound, per cent of control [21]: 100%; kinase still bound, per cent of control [22]: 100%; kinase still bound, per cent of control [23]: 33%; kinase still bound, per cent of control [24]: 100%; kinase still bound, per cent of control [25]: 100%; kinase still bound, per cent of control [26]: 100%; kinase still bound, per cent of control [27]: 100%; kinase still bound, per cent of control [28]: 100%; kinase still bound, per cent of control [29]: 100%; kinase still bound, per cent of control [30]: 100%; kinase still bound, per cent of control [31]: 100%; kinase still bound, per cent of control [32]: 100%; kinase still bound, per cent of control [33]: 100%; kinase still bound, per cent of control [34]: 100%; kinase still bound, per cent of control [35]: 100%; kinase still bound, per cent of control [36]: 100%; kinase still bound, per cent of control [37]: 100%; kinase still bound, per cent of control [38]: 100%; kinase still bound, per cent of control [39]: 100%; kinase still bound, per cent of control [40]: 100%
100 | 100 | 100 | 100 | 100 | 100 | 17 | 100 | 100 | 100 | 100 | 100 | 100 | 100 | 100 | 100 | 100 | 100 | 100 | 100 | COc1cc(C(=O)NC2CCN(C)CC2)ccc1Nc1ncc2c(n1)N(C1CCCC1)CCC(=O)N2C(C)C | kinase still bound, per cent of control [21]: 100%; kinase still bound, per cent of control [22]: 100%; kinase still bound, per cent of control [23]: 100%; kinase still bound, per cent of control [24]: 100%; kinase still bound, per cent of control [25]: 100%; kinase still bound, per cent of control [26]: 100%; kinase still bound, per cent of control [27]: 100%; kinase still bound, per cent of control [28]: 100%; kinase still bound, per cent of control [29]: 100%; kinase still bound, per cent of control [30]: 100%; kinase still bound, per cent of control [31]: 100%; kinase still bound, per cent of control [32]: 100%; kinase still bound, per cent of control [33]: 100%; kinase still bound, per cent of control [34]: 100%; kinase still bound, per cent of control [35]: 100%; kinase still bound, per cent of control [36]: 100%; kinase still bound, per cent of control [37]: 0%; kinase still bound, per cent of control [38]: 100%; kinase still bound, per cent of control [39]: 100%; kinase still bound, per cent of control [40]: 100%

SMILES | kinase still bound, per cent of control [1] [%] | kinase still bound, per cent of control [2] [%] | kinase still bound, per cent of control [3] [%] | kinase still bound, per cent of control [4] [%] | kinase still bound, per cent of control [5] [%] | kinase still bound, per cent of control [6] [%] | kinase still bound, per cent of control [7] [%] | kinase still bound, per cent of control [8] [%] | kinase still bound, per cent of control [9] [%] | kinase still bound, per cent of control [10] [%] | kinase still bound, per cent of control [11] [%] | kinase still bound, per cent of control [12] [%] | kinase still bound, per cent of control [13] [%] | kinase still bound, per cent of control [14] [%] | kinase still bound, per cent of control [15] [%] | kinase still bound, per cent of control [16] [%] | kinase still bound, per cent of control [17] [%] | kinase still bound, per cent of control [18] [%] | kinase still bound, per cent of control [19] [%] | kinase still bound, per cent of control [20] [%] | further results
Cc1ccc(NC(=O)c2cccc(C(C)(C)C#N)c2)cc1Nc1ccc2ncn(C)c(=O)c2c1 | 3.5 | 100 | 100 | 100 | 100 | 100 | 100 | 12 | 87 | 100 | 0 | 100 | 100 | 100 | 100 | 100 | 2.8 | 100 | 100 | 100 | kinase still bound, per cent of control [21]: 100%; kinase still bound, per cent of control [22]: 100%; kinase still bound, per cent of control [23]: 4.4%; kinase still bound, per cent of control [24]: 100%; kinase still bound, per cent of control [25]: 100%; kinase still bound, per cent of control [26]: 59%; kinase still bound, per cent of control [27]: 98%; kinase still bound, per cent of control [28]: 100%; kinase still bound, per cent of control [29]: 55%; kinase still bound, per cent of control [30]: 73%; kinase still bound, per cent of control [31]: 100%; kinase still bound, per cent of control [32]: 92%; kinase still bound, per cent of control [33]: 100%; kinase still bound, per cent of control [34]: 100%; kinase still bound, per cent of control [35]: 62%; kinase still bound, per cent of control [36]: 100%; kinase still bound, per cent of control [37]: 0.15%; kinase still bound, per cent of control [38]: 94%; kinase still bound, per cent of control [39]: 100%; kinase still bound, per cent of control [40]: 94%
